The results in this text go back to ChEMBL document CHEMBL5608209, “Biological and structural investigation of tetrahydro-β-carboline-based selective HDAC6 inhibitors with improved stability” (Eur J Med Chem, 2024).

Calls of active or inactive are those of the source. No cut-off for these calls is given here.

The nature of data set [1]: in vitro. The conditions noted are these: human, plasma diluted in PBS (1:2 v/v).
Description: Stability in human plasma in PBS (1:2 v/v) assessed as intact compound at 37 degC measured after 72 hrs
Data set [2] can be described thus: in vitro. The conditions noted are these: human, plasma diluted in PBS (1:2 v/v). This is another data set of the same source.
Description: Stability in human plasma in PBS (1:2 v/v) assessed as intact compound at 37 degC measured after 24 hrs
Data set [3] deals with T1, Protein deacetylase HDAC6 (Homo sapiens) (UniProt Q9UBN7).
T1 sequence (whole entry): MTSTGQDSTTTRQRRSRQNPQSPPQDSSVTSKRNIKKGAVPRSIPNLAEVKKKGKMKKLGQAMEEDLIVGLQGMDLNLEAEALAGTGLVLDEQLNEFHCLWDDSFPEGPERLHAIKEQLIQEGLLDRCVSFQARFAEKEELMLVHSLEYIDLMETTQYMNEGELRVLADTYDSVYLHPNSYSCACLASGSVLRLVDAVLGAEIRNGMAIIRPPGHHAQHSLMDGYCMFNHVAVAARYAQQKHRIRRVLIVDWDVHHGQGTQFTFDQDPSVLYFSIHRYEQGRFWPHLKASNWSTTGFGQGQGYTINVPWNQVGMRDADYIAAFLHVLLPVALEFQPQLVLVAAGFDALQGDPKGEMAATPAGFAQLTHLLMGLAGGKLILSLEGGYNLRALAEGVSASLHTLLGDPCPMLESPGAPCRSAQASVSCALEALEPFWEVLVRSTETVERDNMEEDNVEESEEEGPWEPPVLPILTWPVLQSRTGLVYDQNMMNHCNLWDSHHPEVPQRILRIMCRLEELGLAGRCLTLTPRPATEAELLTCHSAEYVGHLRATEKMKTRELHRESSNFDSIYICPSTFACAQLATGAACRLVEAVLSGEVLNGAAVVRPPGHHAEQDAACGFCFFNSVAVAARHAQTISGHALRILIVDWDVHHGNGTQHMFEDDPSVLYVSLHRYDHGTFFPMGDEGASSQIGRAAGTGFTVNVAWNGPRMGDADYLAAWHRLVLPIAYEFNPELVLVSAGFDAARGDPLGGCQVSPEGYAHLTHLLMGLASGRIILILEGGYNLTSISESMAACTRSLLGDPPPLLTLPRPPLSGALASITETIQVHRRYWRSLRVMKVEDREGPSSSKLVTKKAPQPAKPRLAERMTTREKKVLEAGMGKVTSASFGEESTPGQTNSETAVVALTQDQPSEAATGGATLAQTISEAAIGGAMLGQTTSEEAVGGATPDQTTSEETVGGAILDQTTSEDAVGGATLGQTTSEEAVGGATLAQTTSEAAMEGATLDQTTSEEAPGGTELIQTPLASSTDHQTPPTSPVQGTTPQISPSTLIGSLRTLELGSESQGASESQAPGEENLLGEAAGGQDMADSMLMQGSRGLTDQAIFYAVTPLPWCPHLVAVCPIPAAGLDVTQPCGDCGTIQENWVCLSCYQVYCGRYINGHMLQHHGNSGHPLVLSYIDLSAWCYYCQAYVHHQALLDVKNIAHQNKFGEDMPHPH
The conditions noted are these: MV4-11, dose 50.0 nM, time 24.0 hrs.

Data set [4] deals with T1, Protein deacetylase HDAC6 (Homo sapiens). The conditions noted are these: MV4-11, dose 500.0 nM, time 24.0 hrs.
The target is the same in data set [5]. The conditions noted are these: MV4-11, dose 5.0 nM, time 24.0 hrs.
The target in data set [6] is Histone deacetylase 3 (Homo sapiens, UniProt O15379).
Description: Inhibition of purified recombinant human HDAC3 assessed as inhibition constant using fluorogenic substrate ZMAL (Z-Lys(Ac)-AMC as substrate measured after 90 mins by fluorescence microplate reader
Data set [7] has as its target T2, Histone deacetylase 8 (Homo sapiens, UniProt Q9BY41).
T2 sequence (Q9BY41 whole entry): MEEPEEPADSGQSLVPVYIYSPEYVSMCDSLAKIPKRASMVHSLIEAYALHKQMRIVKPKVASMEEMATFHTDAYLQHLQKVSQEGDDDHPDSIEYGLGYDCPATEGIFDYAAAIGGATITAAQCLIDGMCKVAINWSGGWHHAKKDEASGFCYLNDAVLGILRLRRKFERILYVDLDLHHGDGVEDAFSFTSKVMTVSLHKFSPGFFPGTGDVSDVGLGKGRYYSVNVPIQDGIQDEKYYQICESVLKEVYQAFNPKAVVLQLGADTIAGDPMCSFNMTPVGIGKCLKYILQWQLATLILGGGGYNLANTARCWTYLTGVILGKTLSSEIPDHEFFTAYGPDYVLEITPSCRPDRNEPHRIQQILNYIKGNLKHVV
The data set can be described thus: Inhibition of purified recombinant human HDAC8 assessed as inhibition constant using residues 379-382 (RHKK(Ac)AMC) fluorogenic substrate p53 fluorogenic peptide as substrate measured after 90 mins by fluorescence assay.

The target in data set [8] is T3, Protein deacetylase HDAC6 (Homo sapiens, UniProt Q9UBN7).
T3 sequence (Q9UBN7 whole entry): T1 sequence (whole entry)
The data set can be described thus: Inhibition of purified recombinant human HDAC6 assessed as inhibition constant using residues 379-382 (RHKK(Ac)AMC) fluorogenic substrate p53 fluorogenic peptide as substrate measured after 90 mins by fluorescence assay.

The target of data set [9] is T4, Polyamine deacetylase HDAC10 (Homo sapiens, UniProt Q969S8).
T4 sequence (Q969S8 whole entry): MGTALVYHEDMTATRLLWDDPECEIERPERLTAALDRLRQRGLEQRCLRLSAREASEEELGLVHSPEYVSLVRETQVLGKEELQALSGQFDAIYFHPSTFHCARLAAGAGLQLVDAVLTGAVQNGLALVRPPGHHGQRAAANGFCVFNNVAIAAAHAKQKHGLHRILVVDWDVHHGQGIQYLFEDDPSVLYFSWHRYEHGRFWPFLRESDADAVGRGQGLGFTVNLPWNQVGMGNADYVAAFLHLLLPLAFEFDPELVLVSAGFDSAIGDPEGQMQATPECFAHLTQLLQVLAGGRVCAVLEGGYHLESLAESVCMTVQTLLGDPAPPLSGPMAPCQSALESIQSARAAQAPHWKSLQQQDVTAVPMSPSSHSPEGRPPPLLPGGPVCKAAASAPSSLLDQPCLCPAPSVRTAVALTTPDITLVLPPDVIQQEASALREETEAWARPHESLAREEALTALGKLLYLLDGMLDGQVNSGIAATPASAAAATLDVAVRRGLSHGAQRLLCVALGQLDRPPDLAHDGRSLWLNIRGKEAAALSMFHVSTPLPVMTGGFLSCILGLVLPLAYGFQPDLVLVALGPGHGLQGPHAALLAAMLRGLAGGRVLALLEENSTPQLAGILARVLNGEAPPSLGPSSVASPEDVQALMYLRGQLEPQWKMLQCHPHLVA
The data set can be described thus: Inhibition of purified recombinant human HDAC10 assessed as inhibition constant using residues 379-382 (RHKK(Ac)AMC) fluorogenic substrate p53 fluorogenic peptide as substrate measured after 90 mins by fluorescence assay.

Data set [10] has as its system MV4-11. In words: Antiproliferative activity against human MV4-11 cells assessed as cell viability by measuring amount of ATP after 72 hrs incubation by CellTiteer-Glo Cell viability assay. The conditions noted are these: MV4-11, 72 h.

Chain of Histone deacetylase 3 (O15379 whole entry): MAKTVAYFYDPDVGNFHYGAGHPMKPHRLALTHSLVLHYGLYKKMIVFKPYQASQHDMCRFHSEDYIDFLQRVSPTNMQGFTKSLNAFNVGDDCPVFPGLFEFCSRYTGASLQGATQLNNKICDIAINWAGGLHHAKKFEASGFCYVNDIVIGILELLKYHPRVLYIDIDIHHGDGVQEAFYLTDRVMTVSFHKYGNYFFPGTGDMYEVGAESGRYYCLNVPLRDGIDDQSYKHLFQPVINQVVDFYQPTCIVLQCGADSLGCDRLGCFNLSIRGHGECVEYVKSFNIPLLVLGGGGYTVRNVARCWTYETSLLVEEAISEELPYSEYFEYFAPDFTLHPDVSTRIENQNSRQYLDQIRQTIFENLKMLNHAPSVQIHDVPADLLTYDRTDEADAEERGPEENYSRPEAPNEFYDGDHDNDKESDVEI

In the case of `CN1C(=O)N2Cc3c(c4cc(OCCN5CCOCC5)ccc4n3Cc3ccc(C(=O)O)cc3)[C@](C)(C2)C1=O`, the amount remaining (in general, the share of the starting amount still present when the sample was taken) at 72 h in data set [1] stood at 56.3%. The compound also had a fraction remaining at 24 h in data set [2] of 91.4%.

Consider `CN1C(=O)C2CN(Cc3c2c2ccccc2n3Cc2ccc(C(=O)NO)cc2)C1=O` (stereo not given), for which the inhibition entry in data set [3], in data set [4] and in [5] was “inactive” throughout.

As for `CN1C(=O)N2Cc3c(c4cc(OCCN5CCOCC5)ccc4n3Cc3ccc(C(=O)NO)cc3)C(C3CCCCC3)(C2)C1=O` (racemic), the Ki (commonly a measure of affinity in units of concentration, obtained from inhibition or displacement) in [6] worked out at 0.675 µM; in data set [7], 1.09 µM; in data set [8], 0.00125 µM.

For the compound `CN1C(=O)N2Cc3c(c4cc(O)ccc4n3Cc3ccc(C(=O)NO)cc3)C(c3cccs3)(C2)C1=O` (racemic), the inhibition constant Ki in data set [6] turned out to be 0.118 µM; in [8], 0.00031 µM.

Turning to `CN1C(=O)N2Cc3c(c4cc(OCCN5CCOCC5)ccc4n3Cc3ccc(C(=O)NO)cc3)C(c3ccco3)(C2)C1=O` (racemic), the Ki in data set [6] was 0.384 µM; in [8], 0.00044 µM.

As for `Cn1cc(CNCC2CCN(c3ncc(C(=O)NO)cn3)CC2)c2ccccc21` [QUISINOSTAT], the inhibition constant (Ki) in data set [9] was determined as 0.00149 µM.

`O=C(CCCCCCNC(=O)c1cnc(N(c2ccccc2)c2ccccc2)nc1)NO` [RICOLINOSTAT]: the 50% effective concentration (EC50) (usually the concentration that produces a half-maximal response) in data set [10] is 0.71 µM.

On to `CC(/C=C/C(=O)NO)=C\[C@@H](C)C(=O)c1ccc(N(C)C)cc1` [TRICHOSTATIN], for which the 50% effective concentration (EC50) in data set [10] worked out at 15.3 µM.
